{
  "source": "patent US20020137929A1",
  "about": "“1 - (3-heterocyclylphenyl) isothiourea, -isourea, -guanidine and -amidine herbicidal agents” (Intellectual Property Department, BASF Aktiengesellschaft, priority 1998, published 2002)",
  "key": {"ABUTH (Velvetleaf)": {"test_system": "ABUTH (Velvetleaf)", "assay": "Postemergence herbicidal evaluation", "assay_type": "in vivo, Abutilon theophrasti", "details": "postemergence", "in_short": "(§1)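 First, seedlings were raised for around two weeks. Next, test material in 50/50 acetone/water containing 0.5% TWEEN 20 was sprayed through a nozzle at 40 psi, equivalent to about 0.0156–0.500 kg/ha. Finally, after 4–5 weeks in the greenhouse, plants were rated 0–9.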"}, "GALAP (Galium)": {"test_system": "GALAP (Galium)", "assay": "Postemergence herbicidal evaluation", "assay_type": "in vivo, Galium aparine", "details": "postemergence", "in_short": "as §1"}, "ECHCG (Barnyardgrass)": {"test_system": "ECHCG (Barnyardgrass)", "assay": "Postemergence herbicidal evaluation", "assay_type": "in vivo, Echinochloa crus-galli", "details": "postemergence", "in_short": "as §1"}, "SETVI (Foxtail, Green)": {"test_system": "SETVI (Foxtail, Green)", "assay": "Postemergence herbicidal evaluation", "assay_type": "in vivo, Setaria viridis", "details": "postemergence", "in_short": "as §1"}, "ORYSAT (Rice, Tebonnet)": {"test_system": "ORYSAT (Rice, Tebonnet)", "assay": "Postemergence herbicidal evaluation", "assay_type": "in vivo, Oryza sativa, (L.) Tebonnet", "details": "postemergence", "in_short": "as §1"}, "[1]": {"test_system": "IPOHE (Morningglory, Ivyleaf)", "assay": "Preemergence herbicidal evaluation", "assay_type": "in vivo, Ipomoea hederacea", "details": "preemergence, rated 4-5 weeks after treatment, 0-9 scale", "in_short": "(§2)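 Seeds were planted in potting soil in cups, then sprayed preemergence with the test compound in aqueous acetone at about 0.0156 to 0.500 kg per hectare. Cups were kept under greenhouse conditions and visually rated 4–5 weeks after treatment on a 0–9 scale against an untreated control.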"}, "[2]": {"test_system": "TRZAWR (Wheat, Winter, cv Riband)", "assay": "Preemergence herbicidal evaluation", "assay_type": "in vivo, Triticum aestivum", "details": "preemergence, rated 4-5 weeks after treatment, 0-9 scale", "in_short": "as §2"}, "ZEAMX (Corn, Field)": {"test_system": "ZEAMX (Corn, Field)", "assay": "Preemergence herbicidal evaluation", "assay_type": "in vivo, Zea mays", "details": "preemergence, rated 4-5 weeks after treatment, 0-9 scale", "in_short": "as §2"}, "[3]": {"test_system": "ECHORC (Watergrass (Calif.))", "assay": "Preemergence weed control under flooded paddy conditions", "assay_type": "in vivo, Echinochloa oryzoides", "details": "rated 3-4 weeks after treatment", "in_short": "(§3)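 Flooded-pot preemergence screen with silt loam and seeds in the upper 0.5 cm. Dose about 0.0313 to 0.500 kg/ha, delivered into flood water; visual 0-9 score after 3 to 4 weeks.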"}, "CYPIR (Rice Flatsedge) [4]": {"test_system": "CYPIR (Rice Flatsedge)", "assay": "Preemergence weed control under flooded paddy conditions", "assay_type": "in vivo, Cyperus iria", "details": "rated 3-4 weeks after treatment", "in_short": "as §3"}, "MOOVA (Monochoria)": {"test_system": "MOOVA (Monochoria)", "assay": "Preemergence weed control under flooded paddy conditions", "assay_type": "in vivo, Monochoria vaginalis", "details": "rated 3-4 weeks after treatment", "in_short": "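Ratings on a 0-9 visual scale cover stand, vigor, malformation, size, chlorosis and overall appearance relative to a control, taken three to four weeks post-treatment. Application was into flood water over freshly sown silt loam at roughly 0.0313 to 0.500 kg/ha.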"}, "CYPIR (Rice Flatsedge) [5]": {"test_system": "CYPIR (Rice Flatsedge)", "assay": "Postemergence weed control under flooded paddy conditions", "assay_type": "in vivo, Cyperus iria", "details": "postemergence weeds, rated 3 to 4 weeks after treatment", "in_short": "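With weeds 3 to 5 cm tall and rice at the 1.5 to 2.5 leaf stage, containers were flooded and water held 1.5 to 3 cm above soil. Compounds in 50/50 v/v aqueous/acetone went into the flood water at about 0.0313 to 0.500 kg/ha a.i. Effects were visually rated 0–9 against controls after three to four weeks in the greenhouse.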"}, "CYPSE (Flatsedge)": {"test_system": "CYPSE (Flatsedge)", "assay": "Postemergence weed control under flooded paddy conditions", "assay_type": "in vivo, Cyperus serotinus", "details": "postemergence weeds, rated 3 to 4 weeks after treatment", "excerpt": "Results of herbicide evaluation are expressed on a rating scale (0-9). The scale is based upon a visual observation of plant stand, vigor, malformation, size, chlorosis and overall plant appearance as compared with a control.\nPlastic containers containing weeds which are 3 to 5 cm tall and rice seedlings at the 1.5 to 2.5 leaf stage are flooded with water. The water is maintained at 1.5 to 3 cm above the soil surface for the duration of the experiment. Test compounds are applied as aqueous/ acetone mixtures 50/50 v/v directly into the flood water to provide the equivalent of about 0.0313 to 0.500 kg/ha of active ingredient. The treated containers are placed on greenhouse benches and cared for in accordance with conventional greenhouse procedures. Three to four weeks after treatment, the test is terminated and each container is examined and herbicidal effect rated according to the rating system provided in Example 37. The compounds evaluated are reported by compound number given in Example 37."}},
  "data": [
    {"compound": "C=CCN1C(=O)C(CC(=O)NS(C)(=O)=O)SC1=Nc1cc(-n2c(=O)cc(C(F)(F)F)n(C)c2=O)c(F)cc1Cl", "note": "(stereo not shown) [Compound 96, 3-Allyl-2-{{2-chloro-5-[3,6-dihydro-3-methyl-2,6-dioxo-4-(trifluoromethyl)-1(2H)-pryimidinyl]-4-fluorophenyl}imino}-N-(methylsulfonyl)-4-oxo-5-thiazolidineacetamide]", "values": [
      {"measurement": "ABUTH herbicidal rating", "setting": "ABUTH (Velvetleaf); rate 0.0156 kg/ha", "value": 1.0},
      {"measurement": "ABUTH herbicidal rating", "setting": "ABUTH (Velvetleaf); rate 0.0313 kg/ha", "value": 7.0},
      {"measurement": "ABUTH herbicidal rating", "setting": "ABUTH (Velvetleaf); rate 0.0625 kg/ha", "value": 9.0},
      {"measurement": "ABUTH herbicidal rating", "setting": "ABUTH (Velvetleaf); rate 0.1250 kg/ha", "value": 9.0},
      {"measurement": "GALAP herbicidal rating", "setting": "GALAP (Galium); rate 0.0156 kg/ha", "value": 0.0},
      {"measurement": "GALAP herbicidal rating", "setting": "GALAP (Galium); rate 0.0313 kg/ha", "value": 0.0},
      {"measurement": "GALAP herbicidal rating", "setting": "GALAP (Galium); rate 0.0625 kg/ha", "value": 1.0},
      {"measurement": "GALAP herbicidal rating", "setting": "GALAP (Galium); rate 0.1250 kg/ha", "value": 0.0},
      {"measurement": "ECHCG herbicidal rating", "setting": "ECHCG (Barnyardgrass); rate 0.0156 kg/ha", "value": 0.0},
      {"measurement": "ECHCG herbicidal rating", "setting": "ECHCG (Barnyardgrass); rate 0.0313 kg/ha", "value": 0.0},
      {"measurement": "ECHCG herbicidal rating", "setting": "ECHCG (Barnyardgrass); rate 0.0625 kg/ha", "value": 2.0},
      {"measurement": "ECHCG herbicidal rating", "setting": "ECHCG (Barnyardgrass); rate 0.1250 kg/ha", "value": 2.0},
      {"measurement": "SETVI herbicidal rating", "setting": "SETVI (Foxtail, Green); rate 0.0156 kg/ha", "value": 0.0},
      {"measurement": "SETVI herbicidal rating", "setting": "SETVI (Foxtail, Green); rate 0.0313 kg/ha", "value": 1.0},
      {"measurement": "SETVI herbicidal rating", "setting": "SETVI (Foxtail, Green); rate 0.0625 kg/ha", "value": 7.0},
      {"measurement": "SETVI herbicidal rating", "setting": "SETVI (Foxtail, Green); rate 0.1250 kg/ha", "value": 4.0},
      {"measurement": "ORYSAT herbicidal rating", "setting": "ORYSAT (Rice, Tebonnet); rate 0.0156 kg/ha", "value": 2.0},
      {"measurement": "ORYSAT herbicidal rating", "setting": "ORYSAT (Rice, Tebonnet); rate 0.0313 kg/ha", "value": 2.0},
      {"measurement": "ORYSAT herbicidal rating", "setting": "ORYSAT (Rice, Tebonnet); rate 0.0625 kg/ha", "value": 1.5},
      {"measurement": "ORYSAT herbicidal rating", "setting": "ORYSAT (Rice, Tebonnet); rate 0.1250 kg/ha", "value": 2.0},
      {"measurement": "IPOHE rating", "setting": "[1]; 0.0313 kg/ha", "value": 0.0},
      {"measurement": "IPOHE rating", "setting": "[1]; 0.0625 kg/ha", "value": 0.0},
      {"measurement": "IPOHE rating", "setting": "[1]; 0.1250 kg/ha", "value": 1.0},
      {"measurement": "IPOHE rating", "setting": "[1]; 0.2500 kg/ha", "value": 9.0},
      {"measurement": "IPOHE rating", "setting": "[1]; 0.5000 kg/ha", "value": 9.0},
      {"measurement": "TRZAWR rating", "setting": "[2]; 0.0313 kg/ha", "value": 0.0},
      {"measurement": "TRZAWR rating", "setting": "[2]; 0.0625 kg/ha", "value": 0.0},
      {"measurement": "TRZAWR rating", "setting": "[2]; 0.1250 kg/ha", "value": 0.0},
      {"measurement": "TRZAWR rating", "setting": "[2]; 0.2500 kg/ha", "value": 1.0},
      {"measurement": "TRZAWR rating", "setting": "[2]; 0.5000 kg/ha", "value": 1.0},
      {"measurement": "ZEAMX rating", "setting": "ZEAMX (Corn, Field); 0.0313 kg/ha", "value": 0.0},
      {"measurement": "ZEAMX rating", "setting": "ZEAMX (Corn, Field); 0.0625 kg/ha", "value": 1.0},
      {"measurement": "ZEAMX rating", "setting": "ZEAMX (Corn, Field); 0.1250 kg/ha", "value": 0.0},
      {"measurement": "ZEAMX rating", "setting": "ZEAMX (Corn, Field); 0.2500 kg/ha", "value": 2.0},
      {"measurement": "ZEAMX rating", "setting": "ZEAMX (Corn, Field); 0.5000 kg/ha", "value": 4.0},
      {"measurement": "ECHORC herbicidal effect rating", "setting": "[3]; 0.0313 kg/ha", "value": 0.0},
      {"measurement": "ECHORC herbicidal effect rating", "setting": "[3]; 0.0625 kg/ha", "value": 0.0},
      {"measurement": "ECHORC herbicidal effect rating", "setting": "[3]; 0.1250 kg/ha", "value": 0.0},
      {"measurement": "ECHORC herbicidal effect rating", "setting": "[3]; 0.2500 kg/ha", "value": 3.0},
      {"measurement": "CYPIR herbicidal effect rating", "setting": "CYPIR (Rice Flatsedge) [4]; 0.0313 kg/ha", "value": 0.0},
      {"measurement": "CYPIR herbicidal effect rating", "setting": "CYPIR (Rice Flatsedge) [4]; 0.0625 kg/ha", "value": 5.0},
      {"measurement": "CYPIR herbicidal effect rating", "setting": "CYPIR (Rice Flatsedge) [4]; 0.1250 kg/ha", "value": 6.0},
      {"measurement": "CYPIR herbicidal effect rating", "setting": "CYPIR (Rice Flatsedge) [4]; 0.2500 kg/ha", "value": 6.0},
      {"measurement": "MOOVA herbicidal effect rating", "setting": "MOOVA (Monochoria); 0.0313 kg/ha", "value": 2.0},
      {"measurement": "MOOVA herbicidal effect rating", "setting": "MOOVA (Monochoria); 0.0625 kg/ha", "value": 2.0},
      {"measurement": "MOOVA herbicidal effect rating", "setting": "MOOVA (Monochoria); 0.1250 kg/ha", "value": 3.0},
      {"measurement": "MOOVA herbicidal effect rating", "setting": "MOOVA (Monochoria); 0.2500 kg/ha", "value": 3.0},
      {"measurement": "Herbicidal rating CYPIR", "setting": "CYPIR (Rice Flatsedge) [5]; Rate 0.0313 kg/ha", "value": 0.0},
      {"measurement": "Herbicidal rating CYPIR", "setting": "CYPIR (Rice Flatsedge) [5]; Rate 0.0625 kg/ha", "value": 5.0},
      {"measurement": "Herbicidal rating CYPIR", "setting": "CYPIR (Rice Flatsedge) [5]; Rate 0.1250 kg/ha", "value": 6.0},
      {"measurement": "Herbicidal rating CYPIR", "setting": "CYPIR (Rice Flatsedge) [5]; Rate 0.2500 kg/ha", "value": 6.0},
      {"measurement": "Herbicidal rating CYPSE", "setting": "CYPSE (Flatsedge); Rate 0.0313 kg/ha", "value": 0.0},
      {"measurement": "Herbicidal rating CYPSE", "setting": "CYPSE (Flatsedge); Rate 0.0625 kg/ha", "value": 0.0},
      {"measurement": "Herbicidal rating CYPSE", "setting": "CYPSE (Flatsedge); Rate 0.1250 kg/ha", "value": 0.0},
      {"measurement": "Herbicidal rating CYPSE", "setting": "CYPSE (Flatsedge); Rate 0.2500 kg/ha", "value": 0.0}
    ]}
  ]
}
